A short description of series [1]: HEp-2 cell cytotoxicity, dose response, cytotoxicity control for RSV inhibitor project, HTS (AID 2410). Type of series: functional. The note with it: human respiratory syncytial virus.
Series [2] concerns the target T1, Corticotropin-releasing factor receptor 2/Corticotropin-releasing factor-binding protein (Homo sapiens, UniProt P24387+Q13324).
T1 sequence (Q13324 whole entry): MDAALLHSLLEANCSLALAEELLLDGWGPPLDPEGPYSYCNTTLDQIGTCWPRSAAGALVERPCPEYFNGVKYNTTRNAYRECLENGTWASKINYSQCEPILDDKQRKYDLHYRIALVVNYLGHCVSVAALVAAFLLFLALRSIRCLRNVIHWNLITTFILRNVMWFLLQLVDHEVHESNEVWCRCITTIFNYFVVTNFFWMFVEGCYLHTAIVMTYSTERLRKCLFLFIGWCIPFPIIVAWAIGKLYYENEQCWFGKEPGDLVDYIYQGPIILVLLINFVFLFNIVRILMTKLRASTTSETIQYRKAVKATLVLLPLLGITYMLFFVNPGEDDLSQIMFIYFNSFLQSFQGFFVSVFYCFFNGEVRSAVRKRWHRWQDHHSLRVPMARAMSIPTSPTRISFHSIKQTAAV
T1 sequence (P24387 whole entry): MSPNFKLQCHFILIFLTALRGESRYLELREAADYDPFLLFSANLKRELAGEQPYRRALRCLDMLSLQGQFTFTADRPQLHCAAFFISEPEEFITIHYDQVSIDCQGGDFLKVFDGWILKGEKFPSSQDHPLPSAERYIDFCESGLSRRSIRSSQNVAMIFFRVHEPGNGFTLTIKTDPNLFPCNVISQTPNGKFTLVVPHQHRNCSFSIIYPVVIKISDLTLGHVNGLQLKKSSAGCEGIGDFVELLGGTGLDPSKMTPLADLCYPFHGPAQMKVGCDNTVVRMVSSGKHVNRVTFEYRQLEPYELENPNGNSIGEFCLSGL
Description: activators of CRF receptor 2 with binding protein – uHTS hits, confirmation (AID 602473). The note with it: read-out: EC50_Mean. It counts as functional.

Series [3] concerns the target T1, Corticotropin-releasing factor receptor 2/Corticotropin-releasing factor-binding protein. In words: Dose Response confirmation of uHTS hits for small molecule antagonists of the CRF-binding protein and CRF-R2 receptor complex. It counts as functional. The note with it: read-out: IC50_Mean.
A further series has as its target Cytochrome P450 2D6 (Homo sapiens, UniProt P10635).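 Further: CYP2D6 member of a cytochrome P450 panel assay.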
The next series addresses Cytochrome P450 2C9 (Homo sapiens, UniProt P11712).
The target in the next series is Cytochrome P450 2C19 (Homo sapiens, UniProt P33261). Description: Cytochrome panel assay with activity outcomes. Panel member name: p450-cyp2c19 Compounds with AC50 equal or less than 10 uM are considered active. It counts as functional.
Chain of Cytochrome P450 2C19 (P33261 whole entry): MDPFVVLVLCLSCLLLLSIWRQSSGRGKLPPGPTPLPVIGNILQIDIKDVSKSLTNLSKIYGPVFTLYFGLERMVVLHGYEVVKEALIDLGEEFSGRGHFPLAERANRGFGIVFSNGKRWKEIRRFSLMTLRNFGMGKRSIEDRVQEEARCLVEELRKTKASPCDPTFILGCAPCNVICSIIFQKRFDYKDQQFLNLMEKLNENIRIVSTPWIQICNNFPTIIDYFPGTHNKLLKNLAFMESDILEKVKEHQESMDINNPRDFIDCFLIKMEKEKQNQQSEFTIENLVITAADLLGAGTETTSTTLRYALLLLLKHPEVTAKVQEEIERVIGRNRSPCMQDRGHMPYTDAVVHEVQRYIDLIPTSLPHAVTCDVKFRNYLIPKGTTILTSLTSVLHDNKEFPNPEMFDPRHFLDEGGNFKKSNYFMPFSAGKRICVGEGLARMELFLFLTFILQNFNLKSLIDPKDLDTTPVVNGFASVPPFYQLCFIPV
Series [4] in a line: inhibitors of intracellular T. cruzi replication, confirmation, NIH3T3 host cells, beta-gal luminescence (AID 2044).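 Further: intracellular parasites grown in NIH/3T3 mouse fibroblasts as host cells; luminescent beta-galactosidase reporter signal from transgenic T. cruzi replicating inside host cells; inhibitors lower the luminescence signal.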 Type of series: functional, cell-based.
The nature of series [5]: cytotoxicity toward NIH3T3 fibroblasts, dose response, counter-screen, cell-based, ATP luminescence, mouse fibroblasts (AID 2010).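 Further: cells exposed to compound for about 90 hours before reading.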 Type of series: functional. Background: A counterscreen serves to expose hits that act by an unwanted route or on another target.

Calls of active or inactive are those of the source.

Chain of Cytochrome P450 2C9 (P11712 whole entry): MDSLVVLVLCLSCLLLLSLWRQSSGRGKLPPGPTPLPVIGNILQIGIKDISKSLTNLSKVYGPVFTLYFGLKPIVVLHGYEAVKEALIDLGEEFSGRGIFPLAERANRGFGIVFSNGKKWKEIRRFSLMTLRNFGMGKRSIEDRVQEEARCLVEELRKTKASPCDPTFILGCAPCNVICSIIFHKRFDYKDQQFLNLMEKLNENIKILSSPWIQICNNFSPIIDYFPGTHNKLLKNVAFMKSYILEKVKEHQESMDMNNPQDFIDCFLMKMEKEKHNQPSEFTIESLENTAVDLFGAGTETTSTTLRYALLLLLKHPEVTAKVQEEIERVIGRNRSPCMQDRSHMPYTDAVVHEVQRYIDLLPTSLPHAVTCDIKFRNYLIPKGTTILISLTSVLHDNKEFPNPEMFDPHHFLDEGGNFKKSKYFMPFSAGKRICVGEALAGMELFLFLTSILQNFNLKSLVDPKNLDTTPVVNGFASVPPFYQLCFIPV
Chain of Cytochrome P450 2D6 (P10635 whole entry): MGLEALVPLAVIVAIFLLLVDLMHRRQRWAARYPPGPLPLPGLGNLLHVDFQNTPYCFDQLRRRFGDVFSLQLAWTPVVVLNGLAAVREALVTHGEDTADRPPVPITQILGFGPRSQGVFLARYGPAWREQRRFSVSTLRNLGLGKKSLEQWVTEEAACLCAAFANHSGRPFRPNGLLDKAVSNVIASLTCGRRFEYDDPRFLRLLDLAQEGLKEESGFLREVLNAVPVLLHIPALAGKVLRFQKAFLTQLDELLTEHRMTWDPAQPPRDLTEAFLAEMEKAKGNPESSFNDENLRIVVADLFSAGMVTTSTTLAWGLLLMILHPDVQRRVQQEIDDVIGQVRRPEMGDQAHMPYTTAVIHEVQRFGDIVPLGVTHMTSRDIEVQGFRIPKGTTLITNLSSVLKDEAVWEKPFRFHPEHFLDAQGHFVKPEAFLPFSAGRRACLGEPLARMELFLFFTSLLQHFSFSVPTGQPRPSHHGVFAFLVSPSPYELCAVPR

For the compound `CC(C)C(NS(=O)(=O)c1cccs1)C(=O)Nc1nc(C(C)(C)C)cs1` (configuration not stated), in series [1], the CC50 (in general, the concentration that lowers cell viability or growth by half) is 13.5 µM (active). Consider `Cc1cc(NS(=O)(=O)c2c(C(=O)N3CCOCC3)c(C)n(C)c2C)ccc1Br`, for which the EC50 in series [2] was > 53 µM (inactive). Further, the IC50 in series [3] is > 47.1 µM (inactive). Regarding `CS(=O)(=O)N1CCC2(CC1)CN(Cc1ccccc1)C2`, on Cytochrome P450 2D6, the AC50 – broadly, the concentration giving half of the maximal activity seen – is 15.8 µM (inconclusive).

For the compound `Cc1cc(C)c2nc(NC(=O)c3ccc4c(=O)n5c(nc4c3)CCCCC5)sc2c1`, the EC50 in series [2] was > 53 µM (inactive). The IC50 in series [3] is > 47.1 µM (inactive). `O=C(Nc1cccnc1)c1ccc(-c2ccc(Cl)cc2)o1`: in series [2], the EC50 is > 53 µM (inactive). The IC50 in series [3] was > 47.1 µM (inactive). Consider `Cc1ccccc1NC(=O)C(C)c1cccc(C(=O)c2ccccc2)c1` (configuration not stated), for which the half-maximal activity concentration (AC50) on Cytochrome P450 2D6 was 25.1 µM (inconclusive). For the compound `COc1ccc(-c2cc(C(F)(F)F)nc(N3CCCCCC3)n2)cc1`, the CC50 in series [1] is 28.2 µM (active). As for `CN(C)c1ccc(-c2nc(NCCc3cnc[nH]3)c3ccccc3n2)cc1`, the concentration at half-maximal activity (AC50) on Cytochrome P450 2C9 was 0.794 µM (inconclusive). On to `COc1ccc(-c2cc(C)no2)cc1S(=O)(=O)N1CCN(C(=O)c2ccco2)CC1`, for which, in series [2], the EC50 is > 53 µM (inactive). The IC50 in series [3] is > 47.1 µM (inactive). For the compound `Cc1nc(N2CCOCC2)c(C#N)c(C)c1Br`, in series [1], the CC50 was 30.6 µM (active). In the case of `COc1ccc(C(=O)N2CCCCC2)cc1S(=O)(=O)Nc1ccccc1`, the half-maximal activity concentration (AC50) on Cytochrome P450 2C9 is 14.1 µM (inconclusive). Take `C#CCOc1ccc2c3c(c(=O)oc2c1)CCCC3`: in series [1], the CC50 is 43.7 µM (active). `C=CCc1cccc(CNc2nc3ccccc3n2C)c1O`: the cytotoxic concentration (CC50) in series [1] was 25.9 µM (active). Consider `CC(C)(C)C(=O)Nc1ccc(C(=O)OC2CCCCC2)cc1`, for which, in series [1], the CC50 was 37.3 µM (active). `Cc1cc(N)n2ncc(-c3cccc(Br)c3)c2n1`: the CC50 in series [1] was > 50 µM (active). As for `O=C(CNS(=O)(=O)c1cccs1)NCCc1ccc(Cl)cc1`, the EC50 in series [2] is > 53 µM (inactive). The IC50 in series [3] is > 47.1 µM (inactive). As to `CN1CCN(c2ccc([N+](=O)[O-])cc2C(=O)N2CCOCC2)CC1`, the AC50 result on Cytochrome P450 2C19 is recorded as “inconclusive”. Consider `C[C@H](C(=O)O)c1cccc(Oc2ccccc2)c1`, for which the AC50 on Cytochrome P450 2D6 is 12.6 µM (inconclusive). Take `N#Cc1cccc(-c2cncnc2NCc2cccs2)c1`: the AC50 at Cytochrome P450 2C9 was 0.501 µM (inconclusive); at Cytochrome P450 2D6, 31.6 µM (inconclusive). `COc1ccccc1OCC(=O)NCC1CCCN(C(=O)c2ccccc2C(C)=O)C1` (configuration not stated): in series [2], the EC50 was > 53 µM (inactive). Further, the IC50 in series [3] is > 47.1 µM (inactive). As to `CCOP(=O)(OCC)c1cc(CC)ccc1O`, in series [2], the EC50 was > 53 µM (inactive). Moreover, the IC50 in series [3] was > 47.1 µM (inactive). Take `CC(=O)c1ccccc1OCCCOc1cccc2cccnc12`: the cytotoxic concentration (CC50) in series [1] was 21.4 µM (active). Turning to `O=C(CCn1c(=O)[nH]c2ccsc2c1=O)Nc1ccc(F)c(F)c1`, the half-maximal activity concentration (AC50) on Cytochrome P450 2C9 was 2.82 µM (inconclusive).

Consider `NC(=O)[C@H]1CC2(CC(c3cccc(NC(=O)c4ccccc4)c3)=NO2)CN1C(=O)[C@H]1CCC(=O)N1` (some centres not stated), for which the AC50 entry at Cytochrome P450 2C19 is reported as “inconclusive”. Turning to `CC(C)Cn1cnc2c(SCc3ccccc3)nc(N)nc21`, in series [2], the EC50 was > 53 µM (inactive). Moreover, the IC50 in series [3] was > 47.1 µM (inactive). Consider `CC(C(=O)Nc1sccc1C(N)=O)N1C(=O)C2CC=CCC2C1=O` (configuration not stated), for which the EC50 in series [2] was > 53 µM (inactive). Further, the IC50 in series [3] is > 47.1 µM (inactive).

For `Cc1ccc(Nc2c(O)ncnc2O)cc1`, in series [2], the EC50 is > 53 µM (inactive). Further, in series [3], the IC50 is > 47.1 µM (inactive). Turning to `O=[N+]([O-])c1cc(-c2nnc(C34CC5CC(CC(C5)C3)C4)o2)cc([N+](=O)[O-])c1`, the EC50 is 0.77 µM (active) in series [4] and > 60 µM (not active) in series [5]. Moreover, the CC50 in series [1] is > 50 µM (active). Regarding `Cc1cccc(CNc2ncnc3ccc(-c4ccccc4C#N)cc23)c1`, the half-maximal activity concentration (AC50) at Cytochrome P450 2C9 was 0.501 µM (inconclusive).
